The source of these data is patent US7176320B2, “Benzimidazole derivative” (Teijin Limited, priority 2000, dated 2007).

Series [1] has as its target T1, recombinant human mast cell chymase (Homo sapiens, UniProt P23946).
T1 construct: made in house; host or cells: insect cells (Th5) infected with recombinant baculovirus
T1 sequence (P23946 22-247): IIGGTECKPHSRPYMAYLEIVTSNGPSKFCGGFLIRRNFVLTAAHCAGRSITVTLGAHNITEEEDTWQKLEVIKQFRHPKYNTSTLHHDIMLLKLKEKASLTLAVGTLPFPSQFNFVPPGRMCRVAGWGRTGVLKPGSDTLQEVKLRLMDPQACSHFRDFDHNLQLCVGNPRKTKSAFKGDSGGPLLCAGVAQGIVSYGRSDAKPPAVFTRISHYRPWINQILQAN
Put plainly: Measurement of inhibition of enzyme activity of recombinant human mast cell chymase. The format is biochemical. The conditions noted are these: active human mast cell chymase, substrate succinyl-alanyl-histidyl-prolyl-phenylalanylparanitroanilide, 5 minutes at room temperature, absorbance 405 nm; read-out: inhibitory activity IC50. As for the experimental part:
Recombinant human mast cell chymase was prepared in accordance with the report of Urata, et al. (Journal of Biological Chemistry, Vol. 266, p. 17173 (1991)). Namely, human mast cell chymase was purified by heparin sepharose (Pharmacia) from a culture supernatant of insect cells (Th5) infected with recombinant baculovirus containing cDNA coding for human mast cell chymase. Moreover, after activating in accordance with the report of Murakami, et al. (Journal of Biological Chemistry, Vol. 270, p. 2218 (1995)), the human mast cell chymase was purified with heparin sepharose to obtain active human mast cell chymase.
After adding 2 μl of DMSO solution containing a compound of the present invention to 50 μl of Buffer A (0.5–3.0 M NaCl, 50 mM Tris-HCl, pH 8.0) containing 1–5 ng of the active human mast cell chymase obtained in Example 16, 50 μl of Buffer A containing 0.5 mM succinyl-alanyl-histidyl-prolyl-phenylalanylparanitroanilide (Bacchem) as substrate were added and allowed to react for 5 minutes at room temperature. The changes over time in absorbance at 405 nm were measured to investigate inhibitory activity.

A short description of series [2]: Measurement of blood concentration during administration by intragastric forced feeding to rats. The format is in vivo, rat. As to conditions: male SD rats, fasting, 30 mg/kg, serum. As for the experimental part: The compounds indicated with the above compound nos. 39, 52 and 244 were administered by intragastric forced feeding to male SD rats while fasting at a dose of 30 mg/kg, after which blood samples were collected immediately after administration and at 30 minutes and 1, 2 and 4 hours after administration. Following collection of blood samples, where samples were immediately separated into serum components, the compound of the present invention was extracted by ordinary solid phase extraction methods, and the resulting samples were analyzed by HPLC using an ODS column (32% acetonitrile-water-0.05% TFA was used for the mobile phase for compound nos. 52 and 244, while 47% acetonitrile-water-10 mM ammonium acetate buffer (pH 4.0) was used for the mobile phase for compound no. 39) followed by measurement of the amount of the unchanged form.

The nature of series [3]: In vitro metabolism test using liver microsomes (Ms). Type of series: in vitro ADME. The conditions noted are these: liver microsomes 1.0 mg/mL, substrate 5.0 μM, NADPH 1.0 mM, 37° C.; for MR (metabolic rate at its maximum): pH 7.4. The protocol:
The metabolic rate was determined from the decrease in the amount of the unchanged form at each reaction time and the reaction time based on assigning a value of 100% to the amount of the unchanged form at the initial concentration (reaction time: 0 minutes), and the metabolic rate at the time the metabolic rate reached a maximum was evaluated as the MR value. M=(substrate concentration at reaction time: 0 min.−substrate concentration after reaction)÷reaction time÷protein concentration (nmol/min./mg protein)
(In general: Microsomes from liver hold many membrane-bound enzymes, among them those of drug oxidation.)

The mark [4] stands for this setting: 30 minutes after administration.

The term pIC50 denotes −log10 of the IC50, conventionally taken in molar units.

pIC50: −log10 of the molar value.

Take `COc1ccc2nc(SCCCC(=O)O)n(Cc3csc4ccc(C)cc34)c2c1` [Compound No. 1112, 4-(1-((5-methylbenzothiophene-3-yl)methyl)-6-methoxybenzimidazole-2-ylthio)butanoic acid]: the pIC50 in series [1] is 8.00 to 9.00.

Take `N#Cc1ccc2c(c1)nc(SCCCC(=O)O)n2Cc1csc2ccccc12` [Compound No. 244]: in series [2] (setting [4]), the “Blood concentration of the unchanged form After 30 min.” value was 16.5 µg/mL. For the same molecule, the “Blood concentration of the unchanged form After 4 hr.” value in series [2] (4 hours after administration) stood at 8.9 µg/mL. In series [3], the “Percentage of substrate remaining after 30 min.” value is given as 57.9% and the “MR (metabolic rate at its maximum)” value was 0.211 nmol/min./mg protein.

Turning to `COc1ccc2c(c1)nc(SCCCC(=O)O)n2Cc1csc2ccccc12` [Compound No. 148, 4-(1-((benzothiophene-3-yl)methyl)-5-methoxybenzimidazole-2-ylthio)butanoic acid], the pIC50 in series [1] was 8.00 to 9.00.

On to `O=C(O)CCCSc1nc2cc(Cl)c(Cl)cc2n1Cc1csc2ccccc12` [compound 628], for which the pIC50 in series [1] is 7.00 to 8.00.

As for `Cc1ccc2scc(Cn3c(SCCCC(=O)O)nc4ccccc43)c2c1` [Compound No. 56], in series [3], the “Percentage of substrate remaining after 30 min.” value is 41.2% and the “MR (metabolic rate at its maximum)” value is given as 0.111 nmol/min./mg protein.

`Cc1cc2nc(SCCCC(=O)O)n(Cc3cn(C)c4cccc(C)c34)c2cc1C` [Compound No. 519]: the pIC50 in series [1] was 8.00 to 9.00. Moreover, in series [3], the “Percentage of substrate remaining after 30 min.” value was determined as 52.9% and the “MR (metabolic rate at its maximum)” value is on record as 0.102 nmol/min./mg protein.

With `Cc1ccc2nc(SCCCC(=O)O)n(Cc3csc4ccccc34)c2c1` [Compound No. 436], the pIC50 in series [1] is 7.00 to 8.00.

With `Cn1cc(Cn2c(SCCCC(=O)O)nc3ccccc32)c2ccccc21` [Compound No. 34, 4-(1-((1-methylindole-3-yl)methyl)benzimidazole-2-ylthio)butanoic acid], the pIC50 in series [1] was 7.00 to 8.00. Moreover, in series [3], the “Percentage of substrate remaining after 30 min.” value stood at 60.3% and the “MR (metabolic rate at its maximum)” value came out at 0.260 nmol/min./mg protein.

`COc1ccc2nc(SCCCC(=O)O)n(Cc3csc4cccc(C)c34)c2c1` [Compound No. 1114, 4-(1-((4-methylbenzothiophene-3-yl)methyl)-6-methoxybenzimidazole-2-ylthio)butanoic acid]: the pIC50 in series [1] was 8.00 to 9.00.

As to `Cc1ccc2scc(Cn3c(SCCCC(=O)O)nc4cc(C)c(C)cc43)c2c1` [compound 536], in series [3], the “Percentage of substrate remaining after 30 min.” value was found to be 56.3% and the “MR (metabolic rate at its maximum)” value turned out to be 0.131 nmol/min./mg protein.

Take `Cc1cc2nc(SCCCC(=O)O)n(Cc3cn(C)c4ccccc34)c2cc1C` [compound 514]: in series [3], the “Percentage of substrate remaining after 30 min.” value came to 48.7% and the “MR (metabolic rate at its maximum)” value is given as 0.087 nmol/min./mg protein.

As for `COc1ccc2c(c1)nc(SCCCC(=O)O)n2Cc1csc2cccc(C)c12` [Compound No. 154, 4-(1-((4-methylbenzothiophene-3-yl)methyl)-5-methoxybenzimidazole-2-ylthio)butanoic acid], the pIC50 in series [1] is 8.00 to 9.00.

Take `COc1ccc2c(c1)nc(SCCCC(=O)O)n2Cc1csc2ccc(C)cc12` [Compound No. 152, 4-(1-((5-methylbenzothiophene-3-yl)methyl)-5-methoxybenzimidazole-2-ylthio)butanoic acid]: the pIC50 in series [1] was 7.00 to 8.00.

For `Cc1cc2nc(SCCCC(=O)O)n(Cc3csc4ccccc34)c2cc1C` [Compound No. 532], in series [1], the pIC50 is 8.00 to 9.00. Besides, in series [3], the “Percentage of substrate remaining after 30 min.” value is 36.2% and the “MR (metabolic rate at its maximum)” value is given as 0.277 nmol/min./mg protein.

Turning to `Cc1cccc2c1c(Cn1c(SCCCC(=O)O)nc3ccccc31)cn2C` [Compound No. 39], the pIC50 in series [1] was 8.00 to 9.00. The concentration at 30 min in series [2] (rat, oral, 30 minutes after administration, read-out: Blood concentration of the unchanged form After 30 min.) stood at 16.1 µg/mL. Also, the concentration at 4 h in series [2] (rat, oral, 4 hours after administration, read-out: Blood concentration of the unchanged form After 4 hr.) amounted to 6.3 µg/mL. In series [3], the “Percentage of substrate remaining after 30 min.” value turned out to be 80.1% and the “MR (metabolic rate at its maximum)” value came out at 0 nmol/min./mg protein.

Take `O=C(O)CCCSc1nc2ccccc2n1Cc1csc2ccccc12` [Compound No. 52]: the “Blood concentration of the unchanged form After 30 min.” value in series [2] (setting [4]) was 60.5 µg/mL. Moreover, in series [2] (4 hours after administration), the “Blood concentration of the unchanged form After 4 hr.” value amounted to 12.7 µg/mL. Moreover, in series [3], the “Percentage of substrate remaining after 30 min.” value is 47.5% and the “MR (metabolic rate at its maximum)” value was found to be 0.331 nmol/min./mg protein.

As to `COc1ccc2c(c1)nc(SCCCC(=O)O)n2Cc1cn(C)c2cccc(C)c12` [Compound No. 135], the pIC50 in series [1] was 7.00 to 8.00. In series [3], the “Percentage of substrate remaining after 30 min.” value came to 55.2% and the “MR (metabolic rate at its maximum)” value is 0.097 nmol/min./mg protein.
